From ChEMBL document CHEMBL1201862, “PubChem BioAssay data set” (2004) come the findings set out here.

Some test systems named below: ACHN; EKVX; HCT-116; HCT-15; HOP-92; MOLT-4; NCI-H23; NCI/ADR-RES; OVCAR-4; OVCAR-8; PC-3; RPMI-8226; SK-MEL-2; SK-MEL-5; SN12C; TK-10; UO-31; HL-60; MDA-N.
Experiment in all cases: inhibition of tumour cell growth, NCI panel, 48 h

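Cultured in 96-well plates, cells were exposed to test compound for 48 hours across five concentrations. GI50 is the concentration that inhibits growth by half.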 Calls of active or inactive are those of the source. No stated cut-off is given here; in the data, active = GI50 up to about 1.1 µM and inactive = higher. Some results are limits rather than exact numbers.

For the molecule `COc1ccc(OC)c(C(Cc2ccnc3ccccc23)Cc2ccnc3ccccc23)c1`, the GI50 in the assay with ACHN is > 10 µM (inactive); with EKVX it was 5.15 µM (inactive); in the assay on HCT-116, 0.857 µM (active); in the assay on HCT-15, 6.44 µM; with HOP-92 it was 4.09 µM (inactive); in the assay with MOLT-4 it was 5.79 µM (inactive). In addition, the GI50 was > 10 µM (inactive) in the assay with NCI-H23; 8.39 µM (inactive) in the assay with NCI/ADR-RES; 6.11 µM (inactive) in the assay with OVCAR-4; > 10 µM (inactive) in the assay on OVCAR-8; 5.28 µM (inactive) with PC-3; 5.18 µM (inactive) with RPMI-8226. The GI50 in the assay with SK-MEL-2 was 9.73 µM (inactive); in the assay on SK-MEL-5 it was 3.66 µM (inactive); in the assay with SN12C, > 10 µM (inactive); in the assay with TK-10 it was > 10 µM (inactive); with UO-31 it was 6.68 µM (inactive).

`Nc1ccc(C(=O)NN2C(=O)[C@H](Cl)C2c2ccc(Cl)cc2)cc1` (some centres not stated): the GI50 in the assay with ACHN is 0.789 µM (active); with EKVX, 3.55 µM (inactive); with HCT-116 it was 0.434 µM (active); with HCT-15 it was 0.646 µM; with HL-60, 1.91 µM (inactive); in the assay with HOP-92 it was 1.87 µM (inactive). Also, the GI50 in the assay on MOLT-4 is 1.09 µM (active); in the assay with NCI-H23, 0.869 µM (active); with NCI/ADR-RES, 1.65 µM (inactive); in the assay with OVCAR-4, 0.615 µM (active); with OVCAR-8, 1.76 µM (inactive); with PC-3 it was 1.6 µM (inactive). Besides, the GI50 in the assay on RPMI-8226 is 1.21 µM (inactive); with SK-MEL-2, 1.89 µM (inactive); in the assay with SK-MEL-5, 1.93 µM (inactive); in the assay on SN12C, 1.04 µM (active); in the assay on TK-10 it was 0.838 µM (active); in the assay on UO-31, 2.07 µM (inactive).

Regarding `CCOC(=O)c1cc2c3c(c(C(C)=O)c(O)c2[nH]1)N(C(C)=O)CC3`, the GI50 in the assay on ACHN was 27.5 µM (inactive); with EKVX it was 61 µM (inactive); in the assay with HCT-116, 68.4 µM (inactive); in the assay with HCT-15, 49.7 µM; in the assay with HL-60, 76.2 µM (inactive); in the assay with MDA-N, > 100 µM (inactive). Also, the GI50 in the assay with MOLT-4 was 27.7 µM (inactive); with NCI-H23, 46.9 µM (inactive); in the assay on NCI/ADR-RES it was 29.9 µM (inactive); in the assay on OVCAR-8 it was 38.1 µM (inactive); with PC-3 it was 48.3 µM (inactive); with RPMI-8226, 19.3 µM (inactive). For the same molecule, the GI50 in the assay on SK-MEL-2 was > 100 µM (inactive); with SK-MEL-5, 52.7 µM (inactive); in the assay on SN12C, > 100 µM (inactive); in the assay with TK-10, 40.6 µM (inactive); in the assay with UO-31 it was 31.2 µM (inactive).

Take `COc1ccc(C2SCC(=O)N2NC(=O)c2ccc(NC(C)=O)cc2)cc1` (configuration not stated): the GI50 with ACHN is > 100 µM (inactive); with EKVX, > 100 µM (inactive); in the assay on HCT-116, > 100 µM (inactive); with HCT-15, more than 100 µM; in the assay on HOP-92, 38 µM (inactive); with MDA-N, > 100 µM (inactive). Moreover, the GI50 with MOLT-4, with NCI-H23, in the assay with NCI/ADR-RES, in the assay with OVCAR-4, with OVCAR-8 and in the assay on RPMI-8226 was > 100 µM (inactive) throughout. Besides, the GI50 in the assay with SK-MEL-2, in the assay with SK-MEL-5, in the assay on SN12C, with TK-10 and with UO-31 was > 100 µM (inactive) in each case.

Turning to `COC(=O)C1(Cc2ccc3c(c2)CCC3)Cc2ccccc2C1=O` (configuration not stated), the GI50 in the assay on ACHN was 33.3 µM (inactive); in the assay on EKVX it was 17.3 µM (inactive); in the assay on HCT-116, 7.8 µM (inactive); with HCT-15 it was 6.76 µM; in the assay with HL-60, 3.12 µM (inactive); in the assay on MDA-N, 2.72 µM (inactive). For the same molecule, the GI50 is 4.45 µM (inactive) in the assay on MOLT-4; 19 µM (inactive) with NCI-H23; 7.06 µM (inactive) with NCI/ADR-RES; 26.2 µM (inactive) in the assay with OVCAR-4; 26.1 µM (inactive) in the assay with OVCAR-8; 7.69 µM (inactive) in the assay with PC-3. Moreover, the GI50 in the assay with RPMI-8226 was 9.91 µM (inactive); with SK-MEL-2 it was 13.2 µM (inactive); with SK-MEL-5 it was 4.3 µM (inactive); with SN12C, 27.6 µM (inactive); in the assay with TK-10 it was 12.3 µM (inactive); in the assay with UO-31, 17.1 µM (inactive).

Consider `CSc1nncc2[nH]cnc12`, for which the GI50 is > 100 µM (inactive) with ACHN; > 100 µM (inactive) in the assay with EKVX; > 100 µM (inactive) in the assay on HCT-116; more than 100 µM in the assay on HCT-15; > 100 µM (inactive) in the assay with HL-60; > 100 µM (inactive) in the assay on MDA-N. Besides, the GI50 in the assay on MOLT-4, in the assay with NCI-H23, in the assay on NCI/ADR-RES, with OVCAR-8, in the assay on PC-3 and in the assay with RPMI-8226 was > 100 µM (inactive) in each case. Further, the GI50 with SK-MEL-2, in the assay with SK-MEL-5, with SN12C, with TK-10 and in the assay on UO-31 was > 100 µM (inactive) throughout.

For the molecule `CCCCCCCC/C=C\CCCCCCCC(=O)OC[C@]1(CO)CCC(=O)O1`, the GI50 in the assay with ACHN is > 100 µM (inactive); in the assay on EKVX, > 100 µM (inactive); in the assay on HCT-116, > 100 µM (inactive); in the assay with HCT-15, more than 100 µM; in the assay with HOP-92, > 100 µM (inactive); with MOLT-4, > 100 µM (inactive). Moreover, the GI50 in the assay on NCI-H23, with NCI/ADR-RES, in the assay with OVCAR-4, in the assay with OVCAR-8, in the assay with PC-3 and in the assay with SK-MEL-2 was > 100 µM (inactive) throughout. The GI50 in the assay on SK-MEL-5, in the assay on SN12C, in the assay with TK-10 and in the assay on UO-31 was > 100 µM (inactive) each time.

Take `CC(C)=CCC/C(C)=C/CCC(C(=O)COCc1ccccc1)P1(=O)OC(C)(C)CN1C(C)(C)C` (configuration not stated): the GI50 in the assay with ACHN was > 100 µM (inactive); in the assay on EKVX, > 100 µM (inactive); in the assay with HCT-116, 33.1 µM (inactive); with HCT-15, 48.6 µM; in the assay on MDA-N, > 100 µM (inactive); in the assay with MOLT-4, 15.9 µM (inactive). For the same molecule, the GI50 was 86.5 µM (inactive) in the assay with NCI-H23; 31.5 µM (inactive) in the assay with NCI/ADR-RES; 23.9 µM (inactive) in the assay with OVCAR-4; 39.3 µM (inactive) in the assay on PC-3; 35.5 µM (inactive) in the assay on SK-MEL-2; 47.6 µM (inactive) with SK-MEL-5. Also, the GI50 is > 100 µM (inactive) with SN12C, > 100 µM (inactive) with TK-10 and 50.4 µM (inactive) in the assay with UO-31.

`O=S(=O)(c1ccccc1)n1c(C(O)c2ccccc2)cc2ccccc21` (configuration not stated): the GI50 in the assay with ACHN is 15.7 µM (inactive); in the assay with EKVX, 17.4 µM (inactive); in the assay on HCT-116, 16.5 µM (inactive); in the assay on HCT-15 it was 21.3 µM; in the assay on HL-60, 11.4 µM (inactive); in the assay with HOP-92, 12.7 µM (inactive). Further, the GI50 in the assay on MOLT-4 is 36.4 µM (inactive); with NCI-H23, 18.9 µM (inactive); with NCI/ADR-RES, 13.1 µM (inactive); with OVCAR-4, 18.1 µM (inactive); with OVCAR-8 it was 16.9 µM (inactive); in the assay with PC-3, 15.7 µM (inactive). In addition, the GI50 was > 100 µM (inactive) in the assay with RPMI-8226; 17.1 µM (inactive) in the assay on SK-MEL-2; 14.6 µM (inactive) in the assay with SK-MEL-5; 17.3 µM (inactive) in the assay on TK-10; 11.7 µM (inactive) in the assay with UO-31.

`COCOc1cc(OC)ccc1C/C(=N/O)C(=O)OC`: the GI50 in the assay with ACHN is > 100 µM (inactive); with EKVX, > 100 µM (inactive); in the assay with HCT-116, > 100 µM (inactive); with HCT-15 it was more than 100 µM; with HL-60, > 100 µM (inactive); with MDA-N, > 100 µM (inactive). Besides, the GI50 in the assay with MOLT-4, with NCI-H23, with NCI/ADR-RES, in the assay on OVCAR-4, with OVCAR-8 and with PC-3 was > 100 µM (inactive) each time. The GI50 with SK-MEL-2, in the assay with SK-MEL-5, in the assay with SN12C, in the assay on TK-10 and in the assay on UO-31 was > 100 µM (inactive) in each case.

Turning to `CN(c1ccc(Cl)cc1)S(=O)(=O)c1cccc([N+](=O)[O-])c1`, the GI50 with ACHN is 99.1 µM (inactive); in the assay with EKVX, 66.5 µM (inactive); in the assay with HCT-116, 34 µM (inactive); with HCT-15, 47.1 µM; with HL-60, > 10 µM (inactive); in the assay with MDA-N, 67.9 µM (inactive). Moreover, the GI50 is 17.2 µM (inactive) in the assay with MOLT-4; 34.7 µM (inactive) in the assay on NCI-H23; 36.7 µM (inactive) with NCI/ADR-RES; > 100 µM (inactive) in the assay on OVCAR-4; > 100 µM (inactive) with OVCAR-8; 14.3 µM (inactive) in the assay on PC-3. Besides, the GI50 is 39.1 µM (inactive) with RPMI-8226; 44.2 µM (inactive) in the assay with SK-MEL-2; 27.4 µM (inactive) in the assay with SK-MEL-5; > 100 µM (inactive) in the assay on SN12C; > 100 µM (inactive) with TK-10; 39.9 µM (inactive) in the assay on UO-31.

For `Cc1cc(S(=O)(=O)NC2=NCCCN2)c(S)cc1Cl`, the GI50 with ACHN was 33.8 µM (inactive); in the assay on EKVX, 38.9 µM (inactive); with HCT-116, 31.8 µM (inactive); in the assay on HCT-15, 43.6 µM; with HL-60 it was 22.1 µM (inactive); in the assay with MDA-N it was 43.9 µM (inactive). The GI50 in the assay on NCI/ADR-RES was > 100 µM (inactive); in the assay on OVCAR-4, 16.8 µM (inactive); in the assay with OVCAR-8, 24.3 µM (inactive); in the assay with PC-3, 58.5 µM (inactive); with SK-MEL-2 it was 12.4 µM (inactive); in the assay with SK-MEL-5, 17.9 µM (inactive). The GI50 in the assay with SN12C was 49.4 µM (inactive); with TK-10, 26.9 µM (inactive); in the assay on UO-31, 58.9 µM (inactive).
